The source of these data is ChEMBL document CHEMBL3813680, “Discovery of a 2-hydroxyacetophenone derivative as an outstanding linker to enhance potency and β-selectivity of liver X receptor agonist” (Bioorg Med Chem, 2016).

Data set [1] concerns Mus musculus. Nature of the data set: Upregulation of ABCA1 mRNA expression in LDL receptor knock-out mouse blood at 1 mg/kg, po relative to control. The data set is classed as functional.
Data set [2] deals with T1, Oxysterols receptor LXR-alpha (Homo sapiens, UniProt Q13133).
T1 sequence (Q13133 whole entry): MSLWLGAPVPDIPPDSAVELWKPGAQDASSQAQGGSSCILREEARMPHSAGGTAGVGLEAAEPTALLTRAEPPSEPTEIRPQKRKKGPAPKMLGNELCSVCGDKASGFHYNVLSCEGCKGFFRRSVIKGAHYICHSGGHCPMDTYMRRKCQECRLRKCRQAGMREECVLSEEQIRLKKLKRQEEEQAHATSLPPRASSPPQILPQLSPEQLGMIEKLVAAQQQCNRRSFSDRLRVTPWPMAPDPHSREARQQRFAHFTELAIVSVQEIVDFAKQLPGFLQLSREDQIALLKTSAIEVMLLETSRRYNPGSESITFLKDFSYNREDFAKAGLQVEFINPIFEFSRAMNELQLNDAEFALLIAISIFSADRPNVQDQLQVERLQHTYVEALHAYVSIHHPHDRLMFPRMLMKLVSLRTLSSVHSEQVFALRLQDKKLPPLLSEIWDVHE
Nature of the data set: Agonist activity at GAL4 fused LXRalpha (unknown origin) transfected in CHOK1 cells after 24 hrs by luciferase reporter gene assay.

In data set [3] the test system is Mus musculus. Nature of the data set: Antiatherosclerosis activity in LDL receptor knock out mouse model assessed as decrease in area of lipid accumulation at 3 mg/kg, po by HPLC analysis relative to control. The data set is classed as functional. Further details: scale not given: the % may be the effect or the level left.
Data set [4] relates to Mus musculus. Nature of the data set: Upregulation of SREBP-1c expression in LDL receptor knock-out mouse liver at 3 mg/kg, po relative to control. The data set is classed as functional.
The subject of data set [5] is Mus musculus. Nature of the data set: Antiatherosclerosis activity in LDL receptor knock out mouse model assessed as decrease in LDL-C levels at 3 mg/kg, po by HPLC analysis relative to control. The data set is classed as functional. Further details: scale not given: the % may be the effect or the level left.
In data set [6] the test system is Mus musculus. Nature of the data set: Antiatherosclerosis activity in LDL receptor knock out mouse model assessed as increase in HDL-C levels at 3 mg/kg, po by HPLC analysis relative to control. The data set is classed as functional.
For data set [7], the system named is Mus musculus. Nature of the data set: Antiatherosclerosis activity in LDL receptor knock out mouse model assessed as increase in TG levels at 1 mg/kg, po by HPLC analysis relative to control. Format: functional.
Data set [8] deals with Mus musculus. Nature of the data set: Upregulation of SREBP-1c expression in LDL receptor knock-out mouse liver at 1 mg/kg, po relative to control. The data set is classed as functional.
Data set [9] is described as follows: Cmax in mouse plasma at 10 mg/kg, po measured up to 24 hrs by HPLC-LC-MS/MS analysis. The data set is classed as ADME, organism-based. Also noted: dose 10 mg/kg, route oral.
The subject of data set [10] is Mus musculus. Nature of the data set: Antiatherosclerosis activity in LDL receptor knock out mouse model assessed as LDL-C levels at 1 mg/kg, po by HPLC analysis relative to control. The data set is classed as functional.
For data set [11], the system named is Mus musculus. Nature of the data set: Antiatherosclerosis activity in LDL receptor knock out mouse model assessed as increase in HDL-C levels at 1 mg/kg, po by HPLC analysis relative to control. The data set is classed as functional.
The test system of data set [12] is Mus musculus. Nature of the data set: Antiatherosclerosis activity in LDL receptor knock out mouse model assessed as increase in TG levels at 3 mg/kg, po by HPLC analysis relative to control. The data set is classed as functional.
Data set [13] in a line: AUC in mouse plasma at 10 mg/kg, po measured up to 24 hrs by HPLC-LC-MS/MS analysis. Format: ADME, organism-based. Further details: time < 24 hr, dose 10 mg/kg, route oral.
The subject of data set [14] is Mus musculus. Nature of the data set: Antiatherosclerosis activity in LDL receptor knock out mouse model assessed as increase in TC levels at 3 mg/kg, po by HPLC analysis relative to control. The data set is classed as functional.
Data set [15] relates to Mus musculus. Nature of the data set: Upregulation of ABCA1 mRNA expression in LDL receptor knock-out mouse blood at 3 mg/kg, po relative to control. Format: functional.
Data set [16] concerns Mus musculus. Nature of the data set: Antiatherosclerosis activity in LDL receptor knock out mouse model assessed as increase in TC levels at 1 mg/kg, po by HPLC analysis relative to control. Format: functional.
In data set [17] the test system is Mus musculus. Nature of the data set: Antiatherosclerosis activity in LDL receptor knock out mouse model assessed as decrease in area of lipid accumulation at 1 mg/kg, po by HPLC analysis relative to control. The data set is classed as functional. Also noted: scale not given: the % may be the effect or the level left.
The target in data set [18] is T2, Oxysterols receptor LXR-beta (Homo sapiens, UniProt P55055).
T2 sequence (P55055 whole entry): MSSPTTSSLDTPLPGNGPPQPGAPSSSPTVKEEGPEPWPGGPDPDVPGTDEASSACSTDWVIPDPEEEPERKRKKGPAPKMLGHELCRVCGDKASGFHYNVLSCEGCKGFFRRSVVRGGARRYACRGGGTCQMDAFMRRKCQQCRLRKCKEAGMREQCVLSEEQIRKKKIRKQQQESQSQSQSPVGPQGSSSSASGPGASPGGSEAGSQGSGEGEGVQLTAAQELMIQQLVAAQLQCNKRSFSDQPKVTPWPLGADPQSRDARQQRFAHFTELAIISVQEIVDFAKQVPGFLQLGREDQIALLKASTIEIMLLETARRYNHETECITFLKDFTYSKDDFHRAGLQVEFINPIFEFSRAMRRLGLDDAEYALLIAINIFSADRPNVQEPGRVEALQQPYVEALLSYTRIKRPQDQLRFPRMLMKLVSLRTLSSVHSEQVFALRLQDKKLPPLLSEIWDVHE
Nature of the data set: Agonist activity at GAL4 fused LXRbeta-LBD (unknown origin) transfected in CHOK1 cells after 24 hrs by luciferase reporter gene assay.

`CCCc1cc(C(O)(C(F)(F)F)C(F)(F)F)ccc1Oc1ccc(C(=O)CN2C(=O)NC(C)(c3ccc(OC(C)C)cn3)C2=O)c(O)c1` (single isomer, unassigned; (-)): the “fold change (FC)” value in data set [1] is given as 2.1; in [4], 1.5; in [8], 1.2; in data set [15], 3. For the same molecule, the EC50 was found to be 200 nM in [2] and 7 nM in data set [18]. In addition, the Activity in data set [3] is listed as 59%; in data set [5], 97%; in data set [6] it was 116%; in data set [7] it was 152%; in data set [10] it was 108%; in data set [11], 115%. The Activity in [12] came to 166%; in data set [14], 102%; in data set [16] it was 111%; in data set [17] it was 62%. Besides, the maximum concentration (Cmax) in [9] was found to be 503 ng/mL. Moreover, the AUC at 24 h in data set [13] was determined as 3030 ng·h/mL.
